In ChEMBL document CHEMBL1201862, “PubChem BioAssay data set” (2004):
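How tested: cells in 96-well plates exposed to compound for 48 hours at five concentrations. Here, GI50 denotes the concentration required for 50% inhibition of growth.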 Calls of active or inactive are those of the source. Rule as the data show it: active = GI50 up to about 1.1 µM and inactive = higher.

What was measured:
Experiment in all cases: NCI-60 cell line screen, 48 h
786-0 = test system: 786-0
CAKI-1 = test system: CAKI-1
COLO 205 = test system: COLO 205
DU-145 = test system: DU-145
HCT-15 = test system: HCT-15
HL-60 = test system: HL-60
HOP-62 = test system: HOP-62
HOP-92 = test system: HOP-92
Hs-578T = test system: Hs-578T
K562 = test system: K562
LOX IMVI = test system: LOX IMVI
Malme-3M = test system: Malme-3M
NCI-H226 = test system: NCI-H226
NCI-H460 = test system: NCI-H460
SF-295 = test system: SF-295
SK-MEL-2 = test system: SK-MEL-2
SNB-75 = test system: SNB-75
SW-620 = test system: SW-620
UACC-62 = test system: UACC-62
UO-31 = test system: UO-31

Structure (SMILES) | GI50 (786-0) | GI50 (CAKI-1) | GI50 (COLO 205) | GI50 (DU-145) | GI50 (HCT-15) | GI50 (HL-60) | GI50 (HOP-62) | GI50 (HOP-92) | GI50 (Hs-578T) | GI50 (K562) | GI50 (LOX IMVI) | GI50 (Malme-3M) | GI50 (NCI-H226) | GI50 (NCI-H460) | GI50 (SF-295) | GI50 (SK-MEL-2) | GI50 (SNB-75) | GI50 (SW-620) | GI50 (UACC-62) | GI50 (UO-31)
CCOC(=O)C(C(=O)OCC)C(=O)c1ccccc1C(=O)c1ccccc1 | > 100 µM (inactive) | > 100 µM (inactive) | > 100 µM (inactive) | 43.8 µM (inactive) | > 100000 nM | > 100 µM (inactive) | > 100 µM (inactive) | > 100 µM (inactive) | 84.7 µM (inactive) | > 100 µM (inactive) | > 100 µM (inactive) | > 100 µM (inactive) | > 100 µM (inactive) | > 100 µM (inactive) | > 100 µM (inactive) | > 100 µM (inactive) | > 100 µM (inactive) | 19.5 µM (inactive) | > 100 µM (inactive) | > 100 µM (inactive)
CC1=NN2C(=N)/C(=C/c3ccccc3)C(=O)N=C2S1 | > 100 µM (inactive) | > 100 µM (inactive) | > 100 µM (inactive) | > 100 µM (inactive) | > 100000 nM | > 100 µM (inactive) | > 100 µM (inactive) | > 100 µM (inactive) | > 100 µM (inactive) | > 100 µM (inactive) | > 100 µM (inactive) | > 100 µM (inactive) | > 100 µM (inactive) | > 100 µM (inactive) | > 100 µM (inactive) | > 100 µM (inactive) | > 100 µM (inactive) | > 100 µM (inactive) | > 100 µM (inactive) | > 100 µM (inactive)
[N-]=[N+]=NC1C(O)C(CO)OC1n1cnc2c(N)ncnc21 (stereo not given) | 30.8 µM (inactive) | 40.9 µM (inactive) | > 100 µM (inactive) | 3.04 µM (inactive) | > 100000 nM | 0.522 µM (active) | 84.9 µM (inactive) | 45.7 µM (inactive) | > 100 µM (inactive) | 19.3 µM (inactive) | 24.7 µM (inactive) | > 100 µM (inactive) | 51.6 µM (inactive) | 6.34 µM (inactive) | 44.1 µM (inactive) | > 100 µM (inactive) | 36.4 µM (inactive) | 60.5 µM (inactive) | 99.5 µM (inactive) | 36.6 µM (inactive)
OC1CC2CCC(C1)N2CCCN1c2ccccc2Sc2ccc(Cl)cc21 (stereo not given) | 1.83 µM (inactive) | 3.01 µM (inactive) | 1.77 µM (inactive) | 3.81 µM (inactive) | 2490 nM | 2.26 µM (inactive) | 4.73 µM (inactive) | 2.5 µM (inactive) | 2.22 µM (inactive) | 2.04 µM (inactive) | 1.7 µM (inactive) | 1.87 µM (inactive) | 5.94 µM (inactive) | 1.75 µM (inactive) | 1.75 µM (inactive) | 1.69 µM (inactive) | 2.21 µM (inactive) | 2.43 µM (inactive) | 1.64 µM (inactive) | 2.46 µM (inactive)
Nc1ccn([C@@H]2C=C(CO)[C@@H](O)[C@H]2O)c(=O)n1 | 0.103 µM (active) | 0.101 µM (active) | 0.198 µM (active) | 0.0261 µM (active) | 91.6 nM | 0.05 µM (active) | 0.102 µM (active) | 0.224 µM (active) | 2.24 µM (inactive) | 0.0681 µM (active) | 0.0667 µM (active) | 1.86 µM (inactive) | 5.53 µM (inactive) | 0.0593 µM (active) | 0.155 µM (active) | 10 µM (inactive) | 2.07 µM (inactive) | 0.0849 µM (active) | 0.227 µM (active) | 0.105 µM (active)
